From patent US5707998A, “Nitrogen-containing fused-heterocycle compounds” (Eisai Co., Ltd., priority 1993, dated 1998)
Structures can show the parent of a compound that is named as a salt.

What follows are molecules tested against T1, cGMP-PDE prepared from porcine aorta (Sus scrofa, UniProt A0A287B475) (assay: Inhibitory Activity Against cGMP-PDE Prepared from Porcine Aorta). Settings: CaM-independent cGMP-PDE fraction; 1 μM cGMP substrate; 1 mM EGTA; DMSO 4% or below.
T1 construct: Porcine aorta was cut into small pieces; from tissue; host or cells: porcine aorta, 100,000 x g supernatant, DEAE-Toyopearl 650S fraction
Assay type: biochemical
Protocol: Inhibitory Activity Against cGMP-PDE Prepared from Porcine Aorta The enzymatic activity of cGMP-PDE prepared from porcine aorta was determined by the method of Thompson et al. This determination was conducted in the presence of 1 mM EGTA by the use of 1 μM cGMP as the substrate. The compound of the present invention was added to the reaction system in a state dissolved in DMSO to determine its inhibitory activity. The final DMSO concentration of the reaction system was adjusted to 4% or below. The above cGMP-PDE was prepared as follows: Porcine aorta was cut into small pieces, followed by the addition of 10 times (by volume) as much buffer A [comprising Tris/HCl (20 mM), magnesium acetate (2 mM), dithiothreitol (1 mM), EDTA (5 mM), aprotinin (1400TIU/l),leupeptin (10 mg/l), benzamidine (1 mM) and PMSF (0.2 mM) and having a pH of 7.5]. The resulting mixture was homogenated and centrifuged at 100,000×g for one hour. The obtained supernatant was adsorbed on a column packed with DEAE-Toyopearl 650S (Tosoh, Tokyo, Japan). The resulting column was washed with buffer B [comprising Tris/HCl (50 mM), EGTA (0.1 mM), magnesium acetate (2 mM), dithiothreitol (1 mM) and PMSF (0.2 mM) and having a pH of 7.5] and thereafter subjected to gradient elution with 0.05 to 0.4M sodium chloride to give a CaM-independent cGMP-PDE fraction. The compounds of the present invention were examined for cGMP-PDE inhibitory activity by the above method and the results are given in Table 1.

Row | SMILES | IC50
1 | CCOC(=O)C1CCN(c2nc(NCc3ccc4c(c3)OCO4)c3cc(N(C)C)ccc3n2)CC1 [Example 7, 2-(4-Ethoxycarbonylpiperidino)-4-(3,4-methylenedioxybenzyl)amino-6-dimethylaminoquinazoline] | 148 nM
2 | CCOC(=O)C1CCN(c2nc(NCc3ccc4c(c3)OCO4)c3cc(N)ccc3n2)CC1 [Example 12, 2-(4-Ethoxycarbonylpiperidino)-4-(3,4-methylenedioxybenzyl)amino-6-aminoquinazoline dihydrochloride] | 1130 nM
3 | CN(C)c1ccc2nc(Cl)nc(NCc3ccc4c(c3)OCO4)c2c1 [Example 2, 2-Chloro-4-(3,4-methylenedioxybenzyl)amino-6-dimethylaminoquinazoline] | 120 nM
4 | Clc1nc(NCc2ccc3c(c2)OCO3)c2cc(N3CCCCC3)ccc2n1 [Example 4, 2-Chloro-4-(3,4-methylenedioxybenzyl)amino-6-piperidinoquinazoline] | 1220 nM
5 | COc1ccc(CNc2ncnc3ccc(-n4cnc(C)c4)cc23)cc1Cl [Example 17, 4-(3-Chloro-4-methoxybenzyl)amino-6-(4-methylimidazol-1-yl)quinazoline] | 403 nM
6 | Clc1nc(NCc2ccc3c(c2)OCO3)c2cc(-n3ccnc3Cl)ccc2n1 [Example 5, 2-Chloro-4-(3,4-methylenedioxybenzyl)amino-6-(2-chloroimidazol-1-yl)quinazoline] | 33.4 nM
7 | CN(C)c1ccc2nc(N3CCC(C(=O)O)CC3)nc(NCc3ccc4c(c3)OCO4)c2c1 [Example 10, 2-(4-Carboxypiperidino)-4-(3,4-methylenedioxybenzyl)amino-6-dimethylaminoquinazoline] | 18.7 nM
8 | Clc1nc(NCc2ccc3c(c2)OCO3)c2cc(-n3cccn3)ccc2n1 [Example 1, 2-Chloro-4-(3,4-methylenedioxybenzyl)amino-6-(pyrazol-1-yl)quinazoline] | 9.9 nM
9 | c1cn(-c2ccc3ncnc(NCc4ccc5c(c4)OCO5)c3c2)cn1 [Example 14, 4-(3,4-Methylenedioxybenzyl)amino-6-(imidazol-1-yl)quinazoline] | 720 nM
10 | c1nc(NCc2ccc3c(c2)OCO3)c2cc(-n3cncn3)ccc2n1 [Example 15, 4-(3,4-Methylenedioxybenzyl)amino-6-(1,2,4-triazol-1-yl)quinazoline] | 360 nM

Molecules with a lower IC50, results first:

Row | IC50 | SMILES
11 | 8.09 nM | CCOC(=O)C1CCN(c2nc(NCc3ccc4c(c3)OCO4)c3cc(-n4cccn4)ccc3n2)CC1 [Example 6, 2-(4-Ethoxycarbonylpiperidino)-4-(3,4-methylenedioxybenzyl)amino-6-(pyrazol-1-yl)quinazoline hydrochloride]
12 | 7.29 nM | O=C(O)C1CCN(c2nc(NCc3ccc4c(c3)OCO4)c3cc(-c4nnn[nH]4)ccc3n2)CC1 [Example 13]
13 | 5.27 nM | O=[N+]([O-])c1ccc2nc(Cl)nc(NCc3ccc4c(c3)OCO4)c2c1 [Example 3, 2-Chloro-4-(3,4-methylenedioxybenzyl)amino-6-nitroquinazoline]
14 | 3.5 nM | CCOC(=O)C1CCN(c2nc(NCc3ccc4c(c3)OCO4)c3cc([N+](=O)[O-])ccc3n2)CC1 [Example 8, 2-(4-Ethoxycarbonylpiperidino)-4-(3,4-methylenedioxybenzyl)amino-6-dimethylnitroquinazoline]
15 | 1.48 nM | O=C(O)C1CCN(c2nc(NCc3ccc4c(c3)OCO4)c3cc(-n4cccn4)ccc3n2)CC1 [Example 9, 2-(4-Carboxypiperidino)-4-(3,4-methylenedioxybenzyl)amino-6-(pyrazol-1-yl)quinazoline]
16 | 0.76 nM | O=C(O)C1CCN(c2nc(NCc3ccc4c(c3)OCO4)c3cc([N+](=O)[O-])ccc3n2)CC1 [Example 11, 2-(4-Carboxypiperidino)-4-(3,4-methylenedioxybenzyl)amino-6-nitroquinazolin]
